Results: PubChem BioAssay (NCI)
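Protocol summary: plate cells (96-well), add compound at 5 concentrations, incubate 48 h, interpolate endpoints linearly. GI50 marks 50% less growth. At the TGI there is no net growth.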

How the values were obtained:
Test in all cases: DTP human tumour cell line panel, 48 h
SK-OV-3 ovarian = tested on: SK-OV-3 ovarian
MDA-MB-231 breast = tested on: MDA-MB-231 breast
CCRF-CEM leukemia = tested on: CCRF-CEM leukemia
NCI-H522 lung = tested on: NCI-H522 lung
UACC-62 melanoma = tested on: UACC-62 melanoma
SW-620 colon = tested on: SW-620 colon
HCC-2998 colon = tested on: HCC-2998 colon
TK-10 renal = tested on: TK-10 renal
DU-145 prostate = tested on: DU-145 prostate
MCF7 breast = tested on: MCF7 breast
EKVX NSCLC = tested on: EKVX NSCLC
SF-268 CNS = tested on: SF-268 CNS
SNB-75 CNS = tested on: SNB-75 CNS
SR leukemia = tested on: SR leukemia
RPMI-8226 leukemia = tested on: RPMI-8226 leukemia
MDA-MB-435 = tested on: MDA-MB-435
COLO 205 colon = tested on: COLO 205 colon
OVCAR-5 ovarian = tested on: OVCAR-5 ovarian
HL-60(TB) leukemia = tested on: HL-60(TB) leukemia
NCI-H460 lung = tested on: NCI-H460 lung
T-47D breast = tested on: T-47D breast
BT-549 breast = tested on: BT-549 breast
SF-295 CNS = tested on: SF-295 CNS
HCT-116 colon = tested on: HCT-116 colon
MALME-3M melanoma = tested on: MALME-3M melanoma
MOLT-4 leukemia = tested on: MOLT-4 leukemia
NCI/ADR-RES ovarian = tested on: NCI/ADR-RES ovarian
SN12C renal = tested on: SN12C renal
SK-MEL-5 melanoma = tested on: SK-MEL-5 melanoma
OVCAR-4 ovarian = tested on: OVCAR-4 ovarian
HS 578T breast = tested on: HS 578T breast
K-562 leukemia = tested on: K-562 leukemia
SK-MEL-2 melanoma = tested on: SK-MEL-2 melanoma
OVCAR-8 ovarian = tested on: OVCAR-8 ovarian
SK-MEL-28 melanoma = tested on: SK-MEL-28 melanoma
UACC-257 melanoma = tested on: UACC-257 melanoma
A549 NSCLC = tested on: A549 NSCLC
HT29 colon = tested on: HT29 colon
A498 renal = tested on: A498 renal
CAKI-1 renal = tested on: CAKI-1 renal
HOP-62 NSCLC = tested on: HOP-62 NSCLC

In the case of `C#Cc1ccc(NC(=O)c2ccc(/C=C/C(=O)c3nccn3C)cc2)c(F)c1`, the GI50 (SK-OV-3 ovarian) is reported as 2530 nM, the TGI (SK-OV-3 ovarian) is reported as over 50000 nM and the GI50 (MDA-MB-231 breast) is reported as 2140 nM. It also gave a TGI (MDA-MB-231 breast) of 22400 nM, a GI50 (CCRF-CEM leukemia) of 1080 nM and a TGI (CCRF-CEM leukemia) of 5850 nM. For the same molecule, the GI50 (NCI-H522 lung) was 2160 nM, the TGI (NCI-H522 lung) was over 50000 nM and the GI50 (UACC-62 melanoma) was 1930 nM. It also gave a TGI (UACC-62 melanoma) of over 50000 nM, a GI50 (SW-620 colon) of 1330 nM and a TGI (SW-620 colon) of over 50000 nM. The GI50 (HCC-2998 colon) was 1740 nM, the TGI (HCC-2998 colon) was over 50000 nM and the GI50 (TK-10 renal) was over 50000 nM. For the same molecule, the TGI (TK-10 renal) was over 50000 nM, the GI50 (DU-145 prostate) was 1810 nM and the TGI (DU-145 prostate) was 45600 nM. The GI50 (MCF7 breast) was 1290 nM, the TGI (MCF7 breast) was over 50000 nM and the GI50 (EKVX NSCLC) was 1410 nM. The TGI (EKVX NSCLC) was over 50000 nM, the GI50 (SF-268 CNS) was 1630 nM and the TGI (SF-268 CNS) was over 50000 nM. For the same molecule, the GI50 (SNB-75 CNS) was 1000 nM, the TGI (SNB-75 CNS) was 4340 nM and the GI50 (SR leukemia) was 545 nM. It also gave a TGI (SR leukemia) of 4440 nM, a GI50 (RPMI-8226 leukemia) of 522 nM and a TGI (RPMI-8226 leukemia) of 2140 nM. The GI50 (MDA-MB-435) was 1860 nM, the TGI (MDA-MB-435) was over 50000 nM and the GI50 (COLO 205 colon) was 4020 nM. It also gave a TGI (COLO 205 colon) of over 50000 nM, a GI50 (OVCAR-5 ovarian) of 1770 nM and a TGI (OVCAR-5 ovarian) of over 50000 nM. For the same molecule, the GI50 (HL-60(TB) leukemia) was 844 nM, the TGI (HL-60(TB) leukemia) was 2430 nM and the GI50 (NCI-H460 lung) was 1120 nM. It also gave a TGI (NCI-H460 lung) of 2680 nM, a GI50 (T-47D breast) of 1840 nM and a TGI (T-47D breast) of over 50000 nM. The GI50 (BT-549 breast) was 823 nM, the TGI (BT-549 breast) was 2250 nM and the GI50 (SF-295 CNS) was 1740 nM. The TGI (SF-295 CNS) was 16800 nM, the GI50 (HCT-116 colon) was 876 nM and the TGI (HCT-116 colon) was 1940 nM. It also gave a GI50 (MALME-3M melanoma) of 3760 nM, a TGI (MALME-3M melanoma) of over 50000 nM and a GI50 (MOLT-4 leukemia) of 1370 nM. The TGI (MOLT-4 leukemia) was 5420 nM, the GI50 (NCI/ADR-RES ovarian) was 1500 nM and the TGI (NCI/ADR-RES ovarian) was over 50000 nM. For the same molecule, the GI50 (SN12C renal) was 1440 nM, the TGI (SN12C renal) was over 50000 nM and the GI50 (SK-MEL-5 melanoma) was 2040 nM. For the same molecule, the TGI (SK-MEL-5 melanoma) was over 50000 nM, the GI50 (OVCAR-4 ovarian) was 2650 nM and the TGI (OVCAR-4 ovarian) was over 50000 nM. The GI50 (HS 578T breast) was 1880 nM, the TGI (HS 578T breast) was over 50000 nM and the GI50 (K-562 leukemia) was 853 nM. The TGI (K-562 leukemia) was over 50000 nM, the GI50 (SK-MEL-2 melanoma) was over 50000 nM and the TGI (SK-MEL-2 melanoma) was over 50000 nM. It also gave a GI50 (OVCAR-8 ovarian) of 1910 nM, a TGI (OVCAR-8 ovarian) of over 50000 nM and a GI50 (SK-MEL-28 melanoma) of over 50000 nM. The TGI (SK-MEL-28 melanoma) was over 50000 nM, the GI50 (UACC-257 melanoma) was over 50000 nM and the TGI (UACC-257 melanoma) was over 50000 nM. The GI50 (A549 NSCLC) was 1510 nM, the TGI (A549 NSCLC) was over 50000 nM and the GI50 (HT29 colon) was 1490 nM. For the same molecule, the TGI (HT29 colon) was over 50000 nM, the GI50 (A498 renal) was 2500 nM and the TGI (A498 renal) was over 50000 nM. For the same molecule, the GI50 (CAKI-1 renal) was 2270 nM, the TGI (CAKI-1 renal) was over 50000 nM and the GI50 (HOP-62 NSCLC) was 1540 nM. The TGI (HOP-62 NSCLC) was over 50000 nM.
